Measured values published in US11524012B1, “Quinolone analogs and their salts, compositions, and method for their use” (Senhwa Biosciences, Inc., priority 2018, dated 2022).

Assay: Population PK model in mice (NONMEM)
Type: in vivo, ICR and athymic nude (nu/nu) mice
Excerpt: The current population analysis utilized non-linear mixed effects modeling to quantify the PK and pharmacodynamics (PD) of Compound I. This approach involved estimation of fixed-effect (mean) parameters, together with inter-individual and residual variability for each of the models developed. Where relevant, covariate effects were incorporated to potentially explain the random sources of variability. An additional benefit of this modeling approach is the ability to appropriately handle sparse or unbalanced data, particularly where practical considerations prohibit intensive sampling. Finally, non-linear mixed effects modeling allows for the stochastic simulation of PK-PD to assist with dose recommendation in target populations of interest.
A total of four non-clinical studies were used to characterize PK of Compound I in mice. The dosing regimens included both intravenous (IV) and oral (PO) routes of administration at various dosing schedules. Animal strains evaluated included wild-type ICR and athymic nude (nu/nu) mice (Table 28).
Several PO absorption and disposition models were investigated to describe the PK of Compound I following IV or PO dosing to mice. In addition, the model included a pathway for enterohepatic recirculation, based on the known pharmacology of Compound I.
Total bodyweight was incorporated a priori into the structural base model to allow for parameter comparison between mice and humans. For this, the disposition parameters were allometrically scaled using Equation 1 below: […]
The input after PO dosing was described by first-order absorption. Drug disposition was characterized by a 3 compartment model, with an additional pathway describing known enterohepatic recirculation.
where compartments 1 to 5 represent the PO dosing, central (plasma), 1st peripheral, 2nd peripheral, and gall bladder, respectively. The FLAG component in Equations 2 and 6 is a reserved variable in the modeling software used that allows for estimation of the start and end times of enterohepatic recycling. All parameters are defined in Table 31.
The kinetics of Compound I concentration and xenograft volume was analyzed using non-linear mixed effects modeling (NONMEM® version 7.3; ICON Development Solutions, Maryland, USA). For PK model development, Compound I total drug concentrations were logarithmically transformed to efficiently accommodate the large range of magnitude in observed data. In contrast, xenograft volumes were modeled in the untransformed scale. All population analyses were performed using first-order conditional estimation with interaction, with the ADVAN13 subroutine (TOL=9) to solve the differential equations. For mouse PK model, the reserved FLAG term was used to define the start and end times of enterohepatic recycling using MTIME.
A total of 43 ICR wild-type and nu/nu mice were used to characterize the plasma PK of Compound I following IV and PO bolus administration. The absorption of Compound I after PO dosing was adequately described by a first-order input model. […] The disposition of Compound I was characterized by a 3-compartment model, with an additional enterohepatic recirculation pathway to accommodate its known pharmacology (FIG. 20).
Inclusion of a pathway to describe known enterohepatic circulation was particularly challenging due to the small number of mice available for population PK analysis. A further limitation was the lack of an apparent ‘double-peak’ in the concentration-time profiles for all mice. Consequently, to support the estimation of this pathway, it was assumed that: • Recirculation begins immediately after dosing with all of the Compound I clearance diverted to the gall bladder for the estimated duration of enterohepatic recycling; • The kinetics of transfer for gall bladder to gut is rapid.

[1] = mice, allometrically scaled to 70 kg, population mean Estimate (% RSE)
[2] = mice, population mean Estimate (% RSE)
[3] = nu/nu relative to ICR mice, population mean Estimate (% RSE)

Cc1cnc(CNC(=O)c2c(=O)c3ccc(N4CCCN(C)CC4)nc3n3c2sc2ccccc23)cn1 [Compound I, 2-(4-Methyl-[1,4]diazepan-1-yl)-5-oxo-5H-7-thia-1,11b-diaza-benzo[c]fluorene-6-carboxylic acid (5-methyl-pyrazin-2-ylmethyl)-amide]
bioavailability (ICR and athymic nude (nu/nu), mouse, plasma, po, population estimate, read-out: Absolute bioavailability via the PO route): 24.8%
central volume, nu/nu relative to the ICR wild-type strain (covariate analysis): ~5 fold
clearance, nu/nu relative to the ICR wild-type strain (covariate analysis): approximately 4 fold
CL, Clearance from the central compartment [1]: 0.330 (13.3) L/h/70 kg
CLD1, 1st peripheral distribution clearance [1]: 0.145 (29.9) L/h/70 kg
CLD2, 2nd peripheral distribution clearance [1]: 0.194 (33.7) L/h/70 kg
VP1, 1st peripheral distribution volume [1]: 7.51 (22.7) L/70 kg
VP2, 2nd peripheral distribution volume [1]: 149 (21.0) L/70 kg
Vc, Central compartment distribution volume [1]: 26.2 (15.1) L/70 kg
Vc, Central compartment distribution volume, % BSV (mice, between-subject variability Estimate (% RSE)): 44.5 (22.8) %
Foral, Absolute bioavailability after PO dosing [2]: 0.248 (9.7)
HRCTime, Enterohepatic recirculation time [2]: 3.66 (10.7) h
ka, First-order rate constant for PO absorption [2]: 1.29 (11.5) 1/h
FCL_NU, Fold change in clearance (nu/nu mice) [3]: 3.99 (14.8)
FVC_NU, Fold change in central volume (nu/nu mice) [3]: 4.78 (8.8)
clearance (estimated mean) (population estimate, allometrically scaled): 0.330 L/h/70 kg
